Data reported in patent US12473262B2, “Aryl hydrocarbon receptor activators” (Oregon State University, priority 2019, dated 2025).

Molecular target: aryl hydrocarbon receptor (AhR) (Mus musculus (Mouse), UniProt P30561)
Assay: AhR ligand screening: AhRE-luciferase reporter in transfected Hepa1 cells
Type: cell-based
Conditions: for Fold @ 1 nM: fold change of luciferase expression at 1 nM test compound relative to vehicle (0.1% DMSO); for Fold @ 100 nM: fold change of luciferase expression at 100 nM test compound relative to vehicle (0.1% DMSO); for Fold @ 10 uM: fold change of luciferase expression at 10 uM test compound relative to vehicle (0.1% DMSO); for Fold relative to benchmark @ 100 nM: luciferase expression at 100 nM test compound relative to 100 nM benchmark compound 11-cl-BBQ
Excerpt: The AhR is a ligand-activated transcription factor that dimerizes with ARNT to regulate gene expression, and genes that are regulated by AhR ligands have AhR response elements (AhRE) in their promotor regions.
Briefly, Hepa1 cells were transfected with a reporter construct consisting of AhRE linked to luciferase. The addition of AhR ligands to the transfected cells induces luciferase production that is directly proportional to the amount of AhR activation. We used this reporter system to identify novel compounds with AhR-activating properties. Transfected Hepa1 cells were plated at a density of 1×10^4 cells/well in 100 μL of cell culture media in 96 well plates and grown overnight. […] Following incubation with the compounds, the media was removed, and cells were harvested with lysis buffer. The lysates were transferred to opaque 96 well plates, where they were assayed well-by-well for luciferase activity by injection of luciferase assay substrate with a 2 sec mixing time and 15 sec integration period on a Tropix TR717 microplate luminometer. Data were expressed as fold induction of luciferase relative to vehicle (0.1% DMSO) treated cells.

aryl hydrocarbon receptor (AhR), sequence (P30561 10-805): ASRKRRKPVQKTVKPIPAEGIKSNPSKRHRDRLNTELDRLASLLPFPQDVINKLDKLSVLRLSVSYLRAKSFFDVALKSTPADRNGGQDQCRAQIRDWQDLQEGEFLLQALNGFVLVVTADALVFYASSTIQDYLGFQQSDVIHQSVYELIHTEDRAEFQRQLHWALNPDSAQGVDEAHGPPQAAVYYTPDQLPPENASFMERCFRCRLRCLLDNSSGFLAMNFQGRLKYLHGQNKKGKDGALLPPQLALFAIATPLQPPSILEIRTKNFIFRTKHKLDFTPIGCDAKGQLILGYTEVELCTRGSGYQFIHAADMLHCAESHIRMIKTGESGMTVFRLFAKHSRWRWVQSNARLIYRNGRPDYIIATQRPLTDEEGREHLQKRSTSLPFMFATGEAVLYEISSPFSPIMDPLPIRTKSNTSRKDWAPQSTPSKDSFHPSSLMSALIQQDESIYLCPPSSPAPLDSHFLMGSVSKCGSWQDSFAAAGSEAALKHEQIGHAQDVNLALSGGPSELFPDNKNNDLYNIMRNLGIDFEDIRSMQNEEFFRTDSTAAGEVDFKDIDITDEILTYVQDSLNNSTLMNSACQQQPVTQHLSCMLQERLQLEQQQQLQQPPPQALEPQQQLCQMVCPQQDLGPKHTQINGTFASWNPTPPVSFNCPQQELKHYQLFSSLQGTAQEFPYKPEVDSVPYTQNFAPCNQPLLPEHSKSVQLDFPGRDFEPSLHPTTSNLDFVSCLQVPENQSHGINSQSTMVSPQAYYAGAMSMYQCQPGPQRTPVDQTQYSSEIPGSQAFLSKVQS
aryl hydrocarbon receptor (AhR), sequence (P53762 whole entry partner): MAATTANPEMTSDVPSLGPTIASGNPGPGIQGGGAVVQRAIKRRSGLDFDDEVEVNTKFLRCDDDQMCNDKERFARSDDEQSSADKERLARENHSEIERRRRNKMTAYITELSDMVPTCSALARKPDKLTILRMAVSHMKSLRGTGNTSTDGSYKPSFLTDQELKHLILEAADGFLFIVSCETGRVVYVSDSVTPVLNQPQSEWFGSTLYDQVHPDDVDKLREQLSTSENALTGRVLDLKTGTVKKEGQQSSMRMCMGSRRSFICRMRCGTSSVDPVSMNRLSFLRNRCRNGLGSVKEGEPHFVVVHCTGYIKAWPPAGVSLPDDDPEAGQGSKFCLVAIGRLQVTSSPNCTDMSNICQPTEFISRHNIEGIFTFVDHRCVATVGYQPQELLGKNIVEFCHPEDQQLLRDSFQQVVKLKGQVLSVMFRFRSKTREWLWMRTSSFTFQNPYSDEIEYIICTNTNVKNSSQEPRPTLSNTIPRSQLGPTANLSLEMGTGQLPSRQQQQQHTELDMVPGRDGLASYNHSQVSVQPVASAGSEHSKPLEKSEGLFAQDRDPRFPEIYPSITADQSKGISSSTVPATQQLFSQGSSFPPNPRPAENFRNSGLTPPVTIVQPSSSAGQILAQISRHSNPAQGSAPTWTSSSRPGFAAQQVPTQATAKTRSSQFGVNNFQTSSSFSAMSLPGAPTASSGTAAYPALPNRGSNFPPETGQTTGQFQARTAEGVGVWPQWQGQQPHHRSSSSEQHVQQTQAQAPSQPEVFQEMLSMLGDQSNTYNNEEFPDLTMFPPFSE

Row | Structure (SMILES) | Fold @ 1 nM [fold] | Fold @ 100 nM [fold] | Fold @ 10 uM [fold] | Fold relative to benchmark @ 100 nM [fold]
1 | O=C(c1cnc2ccccc2c1)n1c(-c2cccc3ccccc23)nc2cc(Cl)ccc21 [Compound 855] | 1 | 33 | 44 | 1.14
2 | O=C(c1ccc(F)c(F)c1)n1c(-c2ccc(F)c3ccccc23)nc2cc(Cl)ccc21 [Compound 792] | 1 | 2 | 19 | 0.08
3 | O=C(c1ccc(F)c(F)c1)n1c(-c2csc3ccccc23)nc2ccc(Cl)cc21 [Compound 862] | 1 | 2 | 82 | 0.07
4 | O=C(c1ccccc1)n1c(-c2ccc3ccccc3c2)nc2ccc(F)cc21 [Compound 585] | 1 | 1 | 34 | 0.07
5 | O=C(c1ccc(F)c(F)c1)n1c(-c2ccc(Cl)c3ccccc23)nc2cc(Cl)ccc21 [Compound 869] | 1 | 12 | 68 | 0.41
6 | O=C(c1ccccc1)n1c(-c2cccc(C(F)(F)F)c2)nc2cc(Cl)ccc21 [Compound 763] | 1 | 2 | 22 | 0.08
7 | O=C(c1ccc(C(F)(F)F)cc1)c1c[nH]c2ccc(Cl)cc12 [Compound 883] | 1 | 1 | 2 | 0.02
8 | Clc1ccc2nc(-c3cccc4ccccc34)n(Cc3ccnc4ccccc34)c2c1 [Compound 868] | 1 | 2 | 28 | 0.07
9 | COc1ccc(C(=O)n2c(-c3cccc4ccccc34)nc3ccc(Cl)cc32)cc1OC [Compound 683] | 1 | 26 | 34 | 1
10 | CC(C)(C)c1cccc(-c2nc3cc(Cl)ccc3n2C(=O)c2ccccc2)c1 [Compound 790] | 1 | 1 | 2 | 0.04
11 | O=C(c1ccc(F)c(F)c1)n1c(-c2c3ccccc3cc3ccccc23)nc2cc(Cl)ccc21 [Compound 641] | 1 | 1 | 21 | 0.11
12 | O=C(c1ccc(F)c(F)c1)n1c(-c2cccc3ccccc23)nc2ccc(Br)cc21 [Compound 690] | 2 | 22 | 30 | 0.85
13 | O=c1c2cccc3cccc(c32)c2cc3ccc(Cl)cc3n12 [Compound 405, 7-chloro-10-azapentacyclo[10.7.1.0^2,10.0^4,9.0^16,20]icosa 1(19),2,4(9),5,7,12,14,16(20),17-nonaen-11-one] | 8 | 31 |  | 0.78
14 | COc1ccc(Cn2c(-c3cccc4ccccc34)nc3ccc(Cl)cc32)cc1 [Compound 853] | 1 | 1 | 11 | 0.03
15 | CC(C)(C)c1cccc(-c2nc3cc(Cl)ccc3n2C(=O)c2ccc(F)c(F)c2)c1 [Compound 787] | 1 | 1 | 4 | 0.04
16 | N#Cc1ccc2c(c1)nc(-c1cccc3ccccc13)n2C(=O)c1ccccc1 [Compound 770] | 1 | 2 | 2 | 0.08
17 | O=C(c1cccc2ccccc12)c1c[nH]c2cc(Cl)ccc12 [Compound 433] | 1 | 1 | 7 | 0.03
18 | COc1ccc(C(=O)n2c(-c3cccc(C(F)(F)F)c3)nc3ccc(Cl)cc32)cc1 [Compound 765] | 1 | 2 | 14 | 0.08
19 | O=C(c1ccccc1)n1c(-c2ccc(F)c(Cl)c2)nc2cc(Cl)ccc21 [Compound 582] | 1 | 1 | 14 | 0.07

Second part, the compound after the results:

Row | Fold @ 1 nM [fold] | Fold @ 100 nM [fold] | Fold @ 10 uM [fold] | Fold relative to benchmark @ 100 nM [fold] | Structure (SMILES)
20 | 1 | 1 | 8 | 0.03 | N#Cc1ccc(S(=O)(=O)n2c(-c3cccc4ccccc34)nc3ccc(C(=O)N4CCCCC4)cc32)cc1 [Compound 1337]
21 | 1 | 1 | 1 | 0.03 | O=C(c1ccc2c(c1)nc(-c1cccc3ccccc13)n2Cc1ccc(F)c(F)c1)N1CCOCC1 [Compound 1329]
22 | 1 | 1 | 2 | 0.03 | COC(=O)c1ccc2c(c1)nc(-c1cccc3ccccc13)n2S(=O)(=O)c1ccc(C(F)(F)F)cc1 [Compound 1401]
23 | 1 | 2 | 35 | 0.08 | Cc1ccc2c(c1)nc(-c1cccc3ccccc13)n2C(=O)c1ccccc1 [Compound 701]
24 | 1 | 2 | 2 | 0.07 | COC(=O)c1ccc2c(c1)nc(-c1cccc3ccccc13)n2S(=O)(=O)c1ccc(C#N)cc1 [Compound 1361]
25 | 2 | 32 | 35 | 1.23 | O=C(c1ccc(F)cc1F)n1c(-c2cccc3ccccc23)nc2cc(Cl)ccc21 [Compound 694]
26 | 1 | 1 | 8 | 0.03 | O=C(c1ccc2c(c1)nc(-c1cccc3ccccc13)n2S(=O)(=O)c1ccc2ccccc2c1)N1CCCCC1 [Compound 1340]
27 | 1 | 1 | 4 | 0.03 | O=C(c1ccc2c(c1)nc(-c1cccc3ccccc13)n2S(=O)(=O)c1ccc2ccccc2c1)N1CCOCC1 [Compound 1363]
28 | 1 | 1 | 2 | 0.03 | O=C(c1ccc2nc(-c3cccc4ccccc34)n(S(=O)(=O)c3ccc(Cl)cc3)c2c1)N1CCOCC1 [Compound 1359]
29 | 1 | 1 | 6 | 0.03 | O=C(c1ccc2nc(-c3cccc4ccccc34)n(Cc3ccc(SC(F)(F)F)cc3)c2c1)N1CCCCC1 [Compound 1412]
30 | 1 | 19 | 25 | 0.76 | CCc1ccc(S(=O)(=O)n2c(-c3cccc4ccccc34)nc3cc(Cl)ccc32)cc1 [Compound 775]
31 | 1 | 1 | 4 | 0.03 | CN1CCN(C(=O)c2ccc3c(c2)nc(-c2cccc4ccccc24)n3S(=O)(=O)c2cccc(F)c2)CC1 [Compound 1392]
32 | 1 | 1 | 4 | 0.03 | O=C(c1ccc2c(c1)nc(-c1cccc3ccccc13)n2Cc1ccc(SC(F)(F)F)cc1)N1CCCCC1 [Compound 1411]
33 | 1 | 1 | 10 | 0.03 | O=C(c1ccc2c(c1)nc(-c1cccc3ccccc13)n2S(=O)(=O)c1ccc(Cl)cc1)N1CCCCC1 [Compound 1366]
34 | 1 | 15 | 36 | 0.38 | Cc1ccc(S(=O)(=O)n2c(-c3cccc4ccccc34)nc3cc(Cl)ccc32)cc1 [Compound 527, 5-chloro-2-(naphthalen-1-yl)-1-tosyl-1H-benzo[d]imidazole]
35 | 1 | 2 | 20 | 0.07 | O=C(c1ccc2c(c1)nc(-c1cccc3ccccc13)n2Cc1ccc(F)cc1)N1CCOCC1 [Compound 1403]
36 | 1 | 1 | 2 | 0.03 | O=C(c1ccc2nc(-c3cccc4ccccc34)n(S(=O)(=O)c3cccc(F)c3)c2c1)N1CCCCC1 [Compound 1369]
